Data from the supplement of paper PMC11061612.

Assays:
[1] = compound: C[C@@H](Nc1cc(F)cc(F)c1)c1cc(C(=O)N(C)C)cc2c(=O)cc(N3CCOCC3)oc12 [AZD8186]; details: max 3 µM
Summary of the method: (§1)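 Cancer cell lines were seeded into 1536-well plates in 7.5 μl medium (DMEM/F12 or RPMI, 10% FBS), held 24 hours at 37°C and 5% CO2, and dosed for 72 hours with final DMSO typically 0.2%. Luminescence from CellTiter-Glo 2.0, scaled between blank-well and DMSO-well means, served as viability. The single-agent IC50 was obtained from dose-response fits with a non-linear mixed effects model, each fit being a two-parameter logistic curve.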

[2] = compound: CC(C)n1c(=O)n(C)c2cnc3cc(F)c(-c4ccc(OCCCN5CCCCC5)nc4)cc3c21 [AZD1390]; details: max 0.3 µM
Summary of the method: as §1

[3] = compound: Cc1cc2ncnn2cc1Nc1ncc2c(n1)n(C1CCOCC1)c(=O)n2C [AZD7648]; details: max 10 µM
Summary of the method: as §1

[4] = compound: COc1cc(Nc2ncc3c(n2)-c2ccc(Cl)cc2C(c2c(F)cccc2OC)=NC3)ccc1C(=O)O [Alisertib]; details: max 10 µM
Summary of the method: as §1

[5] = compound: COc1cccc(OCCCN)c1-c1cc(Nc2cnc(C#N)cn2)n[nH]1 [Prexasertib]; details: max 1 µM
Summary of the method: as §1

[6] = compound: CN(C)CCCOc1ccc(-c2ccc3ncc4c(c3c2)n(C2CCOCC2)c(=O)n4C)cn1 [AZD0156]; details: max 3 µM
Summary of the method: as §1

[7] = compound: NC1(c2ccc(-c3nc4ccn5c(=O)[nH]nc5c4cc3-c3ccccc3)cc2)CCC1 [MK-2206]; details: max 10 µM
Summary of the method: as §1

[8] = compound: CN(CC[C@H](CSC1=CC=CC=C1)NC2=C(C=C(C=C2)S(=O)(=O)NC(=O)C3=CC=C(C=C3)N4CCC(CC4)[C@H](C5=CC=CC=C5C6=CC=C(C=C6)Cl)O)S(=O)(=O)C(F)(F)F)CCO [AZD4320]; details: max 1 µM
Summary of the method: as §1

[9] = compound: C1CN(CCC1(C(=O)N[C@@H](CCO)C2=CC=C(C=C2)Cl)N)C3=NC=NC4=C3C=CN4 [Capivasertib]; details: max 10 µM
Summary of the method: as §1

[10] = compound: COc1cccc2c1C(=O)c1c(O)c3c(c(O)c1C2=O)C[C@@](O)(C(=O)CO)C[C@@H]3O[C@H]1C[C@H](N)[C@H](O)[C@H](C)O1 [Doxorubicin]; details: max 1 µM
Summary of the method: as §1

[11] = compound: Cc1nc(-c2cn3c(n2)-c2ccc(-c4cnn(C(C)(C)C(N)=O)c4)cc2OCC3)n(C(C)C)n1 [Taselisib]; details: max 10 µM
Summary of the method: as §1

[12] = compound: CC1=CN2[C@@H](C1)C=NC3=CC(=C(C=C3C2=O)OC)OCCCCCOC4=C(C=C5C(=C4)N=C[C@@H]6CC(=CN6C5=O)C)OC [SG3199]; details: max 0.001 µM
Summary of the method: as §1

[13] = compound: COc1nnc2ccc(N3CCC(c4ccc(OCCN5CCN(C)C(=O)[C@H]5C)cc4)CC3)nn12 [AZD5153]; details: max 1 µM
Summary of the method: as §1

[14] = compound: C=CCn1c(=O)c2cnc(Nc3ccc(N4CCN(C)CC4)cc3)nc2n1-c1cccc(C(C)(C)O)n1 [AZD1775]; details: max 3 µM
Summary of the method: as §1

[15] = compound: CC1=C(C(=CC=C1)Cl)NC(=O)C2=CN=C(S2)NC3=CC(=NC(=N3)C)N4CCN(CC4)CCO [Dasatinib]; details: max 2 µM
Summary of the method: as §1

[16] = compound: CS(=O)(=O)CCNCc1ccc(-c2ccc3ncnc(Nc4ccc(OCc5cccc(F)c5)c(Cl)c4)c3c2)o1 [Lapatinib]; details: max 10 µM
Summary of the method: as §1

[17] = compound: COc1cc2ncnc(Nc3ccc(F)c(Cl)c3)c2cc1OCCCN1CCOCC1 [Gefitinib]; details: max 10 µM
Summary of the method: as §1

[18] = compound: CC(=O)Nc1cccc(-n2c(=O)n(C3CC3)c(=O)c3c(Nc4ccc(I)cc4F)n(C)c(=O)c(C)c32)c1 [Trametinib]; details: max 1 µM
Summary of the method: as §1

[19] = compound: C[C@@H](c1ccc2nccn2c1)n1nnc2ncc(-c3cnn(C)c3)nc21 [Savolitinib]; details: max 1 µM
Summary of the method: as §1

[20] = compound: C[C@@H](Oc1cc(-c2cnn(C3CCNCC3)c2)cnc1N)c1c(Cl)ccc(F)c1Cl [Crizotinib]; details: max 10 µM
Summary of the method: as §1

[21] = compound: O=C(c1cc(Cc2n[nH]c(=O)c3ccccc23)ccc1F)N1CCN(C(=O)C2CC2)CC1 [Olaparib]; details: max 10 µM
Summary of the method: as §1

[22] = compound: Cn1cnc2c(F)c(Nc3ccc(Br)cc3Cl)c(C(=O)NOCCO)cc21 [Selumetinib]; details: max 10 µM
Summary of the method: as §1

[23] = compound: CC(=O)c1c(C)c2cnc(Nc3ccc(N4CCNCC4)cn3)nc2n(C2CCCC2)c1=O [Palbociclib]; details: max 10 µM
Summary of the method: as §1

[24] = compound: CCN(CCO)CCCOc1ccc2c(Nc3cc(CC(=O)Nc4cccc(F)c4)[nH]n3)ncnc2c1 [AZD2811]; details: max 1 µM
Summary of the method: as §1

[25] = compound: C[C@@H]1COCCN1C2=NC(=NC(=C2)C3(CC3)[S@](=N)(=O)C)C4=C5C=CNC5=NC=C4 [AZD6738]; details: max 10 µM
Summary of the method: as §1

[26] = compound: Cc1c2c(nn1C)CSCc1cc(n(C)n1)CSc1cc(c3ccccc3c1)OCCCc1c(C(=O)O)n(C)c3c-2c(Cl)ccc13 [AZD5991]; details: max 1 µM
Summary of the method: as §1

[27] = compound: CC1(C)CCC(CN2CCN(c3ccc(C(=O)NS(=O)(=O)c4ccc(NCC5CCOCC5)c([N+](=O)[O-])c4)c(Oc4cnc5[nH]ccc5c4)c3)CC2)=C(c2ccc(Cl)cc2)C1 [Venetoclax]; details: max 1 µM
Summary of the method: as §1

[28] = compound: CCc1c2c(nc3ccc(O)cc13)-c1cc3c(c(=O)n1C2)COC(=O)[C@]3(O)CC [SN-38]; details: max 0.3 µM
Summary of the method: as §1

Cell Line | IC50, cell viability 72 h [1] [nM] | IC50, cell viability 72 h [2] [nM] | IC50, cell viability 72 h [3] [nM] | IC50, cell viability 72 h [4] [nM] | IC50, cell viability 72 h [5] [nM] | IC50, cell viability 72 h [6] [nM] | IC50, cell viability 72 h [7] [nM] | IC50, cell viability 72 h [8] [nM] | IC50, cell viability 72 h [9] [nM] | IC50, cell viability 72 h [10] [nM] | IC50, cell viability 72 h [11] [nM] | IC50, cell viability 72 h [12] [nM] | IC50, cell viability 72 h [13] [nM] | IC50, cell viability 72 h [14] [nM] | IC50, cell viability 72 h [15] [nM] | IC50, cell viability 72 h [16] [nM] | IC50, cell viability 72 h [17] [nM] | IC50, cell viability 72 h [18] [nM] | IC50, cell viability 72 h [19] [nM] | IC50, cell viability 72 h [20] [nM] | IC50, cell viability 72 h [21] [nM] | IC50, cell viability 72 h [22] [nM] | IC50, cell viability 72 h [23] [nM] | IC50, cell viability 72 h [24] [nM] | IC50, cell viability 72 h [25] [nM] | IC50, cell viability 72 h [26] [nM] | IC50, cell viability 72 h [27] [nM] | IC50, cell viability 72 h [28] [nM]
COLO-829 (Melanoma) | > 3000 | > 300 | > 10000 | > 10000 | > 1000 | > 3000 | > 10000 | > 1000 | > 10000 | > 1000 | > 10000 | > 1 | > 1000 | > 3000 | 598 | > 10000 | > 10000 | 279 | > 1000 | > 10000 | > 10000 | 8420 | > 10000 | > 1000 | > 10000 | > 1000 | > 1000 | > 300
MHH-PREB-1 (B-Cell Non-Hodgkin's Lymphoma) | > 3000 | > 300 | > 10000 | > 10000 | 8.91 | > 3000 |  | > 1000 | > 10000 | 317 | > 10000 | > 1 | 756 | 935 | > 2000 | > 10000 | > 10000 | > 1000 | > 1000 | 8080 | > 10000 | > 10000 | > 10000 | > 1000 | 2080 | > 1000 | > 1000 | 58.4
NCI-H747 (Colorectal Carcinoma) | > 3000 | > 300 | > 10000 | > 10000 | > 1000 | > 3000 | 2200 | > 1000 | 4660 | > 1000 | 2380 | > 1 | 101 | 2510 | 542 | > 10000 | > 10000 | 5.4 | > 1000 | > 10000 | > 10000 | 309 | > 10000 | > 1000 | > 10000 | > 1000 | > 1000 | > 300
OVCAR-8 (Ovarian Carcinoma) | > 3000 | > 300 | > 10000 | 7630 | 13.4 | > 3000 |  | > 1000 | > 10000 | 257 | > 10000 | > 1 | 198 | 1370 | 1540 | > 10000 | > 10000 | > 1000 | > 1000 | > 10000 | > 10000 | > 10000 | > 10000 | > 1000 | 6140 | > 1000 | > 1000 | 18.7
SW626 (Colorectal Carcinoma) | > 3000 | > 300 | > 10000 | > 10000 | 127 | > 3000 |  | > 1000 | > 10000 | > 1000 | > 10000 | > 1 | 150 | 1490 | > 2000 | > 10000 | > 10000 | 111 | > 1000 | > 10000 | > 10000 | 2810 | > 10000 | > 1000 | > 10000 | > 1000 | > 1000 | > 300
TE-4 (Esophageal Squamous Cell Carcinoma) | > 3000 | > 300 | > 10000 | > 10000 | 334 | > 3000 |  | > 1000 | 2910 | > 1000 | 381 | > 1 | > 1000 | 1020 | > 2000 | 264 | 990 | 125 | > 1000 | > 10000 | > 10000 | > 10000 | > 10000 | > 1000 | > 10000 | > 1000 | > 1000 | > 300
UMC-11 (Other Solid Carcinomas) | > 3000 | > 300 | > 10000 | 1210 | 57.5 | > 3000 |  | > 1000 | > 10000 | > 1000 | > 10000 | > 1 | 289 | > 3000 | > 2000 | > 10000 | > 10000 | > 1000 | > 1000 | 5910 | > 10000 | > 10000 | > 10000 | 103 | > 10000 | > 1000 | > 1000 | > 300
